Test results as given in ChEMBL document CHEMBL1201862, “PubChem BioAssay data set” (2004).
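Test compounds were applied to cells in 96-well plates for 48 hours at 5 doses. At the GI50, growth is halved.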 Active and inactive are the calls of the source. Rule as the data show it: active = GI50 up to about 1.1 µM and inactive = higher.

Tests used:
Assay in all cases: NCI-60 cell line screen, 48 h
[1] = tested on: 786-0
[2] = tested on: A498
[3] = tested on: A549
[4] = tested on: ACHN
[5] = tested on: BT-549
[6] = tested on: CAKI-1
[7] = tested on: CCRF-CEM
[8] = tested on: COLO 205
[9] = tested on: DU-145
[10] = tested on: EKVX
[11] = tested on: HCC 2998
[12] = tested on: HCT-116
[13] = tested on: HCT-15
[14] = tested on: HL-60
[15] = tested on: HOP-62
[16] = tested on: HOP-92
[17] = tested on: HT-29
[18] = tested on: Hs-578T
[19] = tested on: IGROV-1
[20] = tested on: K562
[21] = tested on: KM12
[22] = tested on: LOX IMVI
[23] = tested on: M14
[24] = tested on: MCF7
[25] = tested on: MDA-MB-231
[26] = tested on: MDA-MB-435
[27] = tested on: MDA-N
[28] = tested on: MOLT-4
[29] = tested on: Malme-3M
[30] = tested on: NCI-H226
[31] = tested on: NCI-H23
[32] = tested on: NCI-H460
[33] = tested on: NCI-H522
[34] = tested on: NCI/ADR-RES
[35] = tested on: OVCAR-3
[36] = tested on: OVCAR-4
[37] = tested on: OVCAR-5
[38] = tested on: OVCAR-8
[39] = tested on: PC-3
[40] = tested on: RPMI-8226
[41] = tested on: RXF 393
[42] = tested on: SF-268
[43] = tested on: SF-295
[44] = tested on: SF-539
[45] = tested on: SK-MEL-28
[46] = tested on: SK-MEL-2
[47] = tested on: SK-MEL-5
[48] = tested on: SK-OV-3
[49] = tested on: SN12C
[50] = tested on: SNB-19
[51] = tested on: SNB-75
[52] = tested on: SR
[53] = tested on: SW-620
[54] = tested on: T47D
[55] = tested on: TK-10
[56] = tested on: U-251
[57] = tested on: UACC-257
[58] = tested on: UACC-62
[59] = tested on: UO-31

Measured: GI50

N=c1oc2ccccc2cc1C(=O)NC12CC3CC(CC(C3)C1)C2
12.5 µM: [13]
active: [59] 0.0887 µM
inactive: [1] 2.88 µM | [2] 22.1 µM | [3] 16.2 µM | [4] 6.89 µM | [5] 18.2 µM | [6] 7.52 µM | [7] 3.18 µM | [8] 14.1 µM | [9] 13.2 µM | [10] 21.9 µM | [11] 14.5 µM | [12] 15.6 µM | [14] 9.16 µM | [15] 22.6 µM | [16] 25.8 µM | [17] 6.11 µM | [18] 32.4 µM | [19] 16.5 µM | [20] 13.9 µM | [21] 12 µM | [22] 13.8 µM | [23] 25.7 µM | [24] 3.7 µM | [25] 20.1 µM | [26] 18.6 µM | [27] 26.2 µM | [28] 2.41 µM | [29] 32.1 µM | [30] 24.2 µM | [31] 27.4 µM | [32] 14.4 µM | [33] 3.55 µM | [34] 24.2 µM | [35] 12.5 µM | [36] 19.9 µM | [37] 37.5 µM | [38] 30.4 µM | [39] 17.8 µM | [40] 5.71 µM | [41] 6.52 µM | [42] 34 µM | [43] 20.6 µM | [44] 16.9 µM | [45] 40.4 µM | [46] 14 µM | [47] 21.2 µM | [48] 7.64 µM | [49] 28.2 µM | [50] 24.4 µM | [51] 19.3 µM | [52] 2.9 µM | [53] 19.3 µM | [54] 4.52 µM | [55] 16 µM | [56] 17.1 µM | [57] 23 µM | [58] 15.8 µM

C1=N\CCNCC/N=C/c2ccccc2OCc2cccc(n2)COc2ccccc2/1
inactive: [1] 6.7 µM | [2] > 100 µM | [3] > 100 µM | [4] 31.2 µM | [5] 12 µM | [6] 42.8 µM | [7] 3.33 µM | [8] > 56.8 µM | [9] 26.3 µM | [10] 35.5 µM | [11] 19.5 µM | [12] 3.57 µM | [14] 2.56 µM | [15] 12.4 µM | [16] 26.1 µM | [17] 10.7 µM | [18] 9.51 µM | [19] 24.5 µM | [20] 4.59 µM | [21] 20.5 µM | [22] 5.31 µM | [23] 8.02 µM | [24] 4.13 µM | [25] 22.2 µM | [26] 3.86 µM | [27] 3.18 µM | [28] 6.43 µM | [29] 11.8 µM | [30] 26.3 µM | [31] 12.9 µM | [32] 33.1 µM | [33] 27.5 µM | [34] 6.21 µM | [35] 23.8 µM | [36] 13.7 µM | [37] 37.5 µM | [38] 9.44 µM | [39] 19.2 µM | [40] 3.77 µM | [41] 27.9 µM | [42] 12.9 µM | [43] 8.15 µM | [44] 2.72 µM | [45] 7.85 µM | [46] > 44.5 µM | [47] 12.6 µM | [48] 43.3 µM | [49] 13.2 µM | [50] > 22.4 µM | [51] 9.46 µM | [52] 4.06 µM | [53] 7.05 µM | [54] 17.2 µM | [55] 20.7 µM | [56] 6.32 µM | [57] 29.2 µM | [58] 6.15 µM | [59] 9.12 µM
4.69 µM: [13]
